Measurements taken from patent US5968791A, “Plant lysophosphatidic acid acyltransferases” (Calgene, Inc., priority 1995, dated 1999).

What was measured:
coconut LPAAT [1] = molecular target: T1, coconut LPAAT (Cocos nucifera, UniProt Q42670); assay: LPAAT activity assay, coconut P2 membrane preparation; assay type: biochemical; design: white endosperm tissue lining the inside of the endocarp can be dissected and collected; from tissue; host or cells: immature coconut endosperm, P2 membrane fraction; conditions: P2 membrane preparation; acyl-CoA donor varied, acceptor 12:0-LPA
T1 sequence (Q42670 1-308): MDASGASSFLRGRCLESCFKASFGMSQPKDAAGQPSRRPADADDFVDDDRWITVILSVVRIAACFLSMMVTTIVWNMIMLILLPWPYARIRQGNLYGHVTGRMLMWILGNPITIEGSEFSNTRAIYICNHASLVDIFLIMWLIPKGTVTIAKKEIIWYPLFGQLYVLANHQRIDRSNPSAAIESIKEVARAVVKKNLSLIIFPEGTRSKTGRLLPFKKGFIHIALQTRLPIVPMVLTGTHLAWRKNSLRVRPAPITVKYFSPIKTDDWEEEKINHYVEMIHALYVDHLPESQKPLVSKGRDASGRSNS
Description: To assay for LPAAT activity, the sample is incubated with lysophosphatidic acid (LPA) and acyl-coenzyme A (acyl-CoA) substrates in buffered solution. The acyl substituents of the two substrates are chosen to correspond with the specificity of the enzyme being measured. For example, to measure activity of an LPAAT having preference for medium-chain substrates, lauroyl-LPA (lauroyl-lysophosphatidic acid) and lauroyl-CoA may be used, to measure activity of an LPAAT preferring longer-chain acyl groups, oleoyl-LPA and oleoyl-CoA may be used, to measure activity of an LPAAT preferring very-long chain substrate, erucyl-LPA and erucyl-CoA may be used, and so on, depending upon the type of LPAAT to be tested. The acyl group of one substrate is radioactively labeled in order to detect the product formed. In the examples which follow the acyl substituent of the acyl-CoA substrate is radiolabeled with ^14 C in the carboxyl group. LPAAT activity results in transfer of this acyl group from the acyl-CoA "donor" substrate to the LPA "acceptor" substrate, converting the latter into the product, phosphatidic acid (PA). LPAAT activity is measured as the amount of radioactive product formed in a given assay time. The PA product is radioactive as a result of the transferred radiolabeled acyl group at the central carbon atom of the molecule, and the quantity of PA formed may be determined by measuring radioactivity of the PA fraction. For this measurement, the PA is first separated from the acyl-CoA substrate by solvent partitioning, or by thin-layer chromatography (TLC).
20 μl of the sample to be assayed for LPAAT activity is mixed with 217.5 μl of an assay ingredient mixture in a 4-ml, screw-cap vial. […] The incubation takes place in a water bath at 30° C., for 20-30 minutes.
To stop the assay, 0.25 ml of 1M KCl in 0.2M H3 PO4 is added to the vial. At this point, 40 μl BSA (bovine serum albumin, fraction V) at 1 mg/ml are added, followed by 0.75 ml of a solution of 67 μg/ml unlabeled PA (acting as a "carrier" to facilitate partitioning) in chloroform/methanol (2:1, v/v). The chain lengths of the PA acyl groups are chosen to correspond to those used in the assay substrates. Upon thorough mixing of these components the radiolabeled PA product of the LPAAT reaction partitions into the organic phase and away from the unreacted acyl-CoA and LPA. The vial is centrifuged briefly at low speed to facilitate the separation of organic (lower) and aqueous (upper) phases. The aqueous phase is then removed and discarded. The total radioactivity extracted into the organic phase is determined by liquid scintillation counting; a 100 μl sample of the organic phase is transferred to a 20 ml scintillation vial and allowed to dry, and scintillation fluid (3-5 ml) is added to the vial. The radioactivity of the sample, after subtraction of the "minus-enzyme" or "minus-LPA" radioactivities, is taken as an approximate indication of the amount of PA formed in the LPAAT-catalyzed reaction and therefore of LPAAT activity.
A more accurate estimation of the LPAAT activity may be obtained by separating the PA product from these contaminants by TLC. The remaining organic phase is applied to a silica TLC plate. Ascending chromatography is carried out for 50 minutes, using the solvent mixture chloroform/pyridine/88% formic acid (50:30:7, v/v). After the plate has dried, the distribution of radioactivity is visualized and quantitated using an AMBIS radioanalytic imaging system (AMBIS Systems Inc., San Diego, Calif.). From prior application of standard lipid components the Rf of the PA is known. The radioactivity associated with the PA spot is expressed as a percentage of the total radioactivity of the assay sample loaded on the plate. This ratio provides an indication of the proportion of the scintillation counts which represent the PA product, and may be used to correct the counts to obtain the total PA radioactivity formed in the assay. […]

coconut LPAAT [2] = molecular target: T1, coconut LPAAT; assay: Acyl-CoA specificity of coconut LPAAT expressed in E. coli (pCGN5505), membrane fractions; assay type: biochemical; design: the SalI/BamHI fragment of pCGN5504 containing the entire coconut LPAAT encoding region; made in house; host or cells: E. coli BL21(DE3), membrane fractions; conditions: acceptor 12:0-LPA
Description: The samples are centrifuged at 12,000 g for 15 minutes. The resulting supernatant fractions are centrifuged for two hours at 134,000 g, and the pelleted membranes suspended in 50 mM HEPES, 200 mM NaCl, 20% (w/v) glycerol, 5 mM β-mercaptoethanol, pH 7.5. Membrane fractions are assayed for acyl-CoA substrate specificities with 12:0-LPA and various acyl-CoA species as described in Example 1. Membrane preparations from cultures of E. coli and from immature coconut endosperm are combined with soybean phospholipids and diluted in 1M NaCl in Buffer A to simulate the pre-assay conditions of the solubilized enzyme.

LPAAT Activity from Coconut (coconut LPAAT [1]) | utilization by E. coli expressed coconut LPAAT (coconut LPAAT [2]) | SMILES
6 pmol PA formed/30 min assay | some minor activity detectable | CCCCCCCC(=O)SCCNC(=O)CCNC(=O)[C@H](O)C(C)(C)COP(=O)(O)OP(=O)(O)OC[C@H]1O[C@@H](n2cnc3c(N)ncnc32)[C@H](O)[C@@H]1OP(=O)(O)O [8:0]
43 pmol PA formed/30 min assay | most active | CCCCCCCCCC(=O)SCCNC(=O)CCNC(=O)[C@H](O)C(C)(C)COP(=O)(O)OP(=O)(O)OC[C@H]1O[C@@H](n2cnc3c(N)ncnc32)[C@H](O)[C@@H]1OP(=O)(O)O [10:0]
238 pmol PA formed/30 min assay | most active | CCCCCCCCCCCC(=O)SCCNC(=O)CCNC(=O)[C@H](O)C(C)(C)COP(=O)(O)OP(=O)(O)OC[C@H]1O[C@@H](n2cnc3c(N)ncnc32)[C@H](O)[C@@H]1OP(=O)(O)O [12:0, lauroyl-CoA]
21 pmol PA formed/30 min assay | – | CCCCCCCCCCCCCCCC(=O)SCCNC(=O)CCNC(=O)[C@H](O)C(C)(C)COP(=O)(O)OP(=O)(O)OC[C@H]1O[C@@H](n2cnc3c(N)ncnc32)[C@H](O)[C@@H]1OP(=O)(O)O [16:0]
9 pmol PA formed/30 min assay | – | CCCCCCCC/C=C\CCCCCCCC(=O)SCCNC(=O)CCNC(=O)[C@H](O)C(C)(C)COP(=O)(O)OP(=O)(O)OC[C@H]1O[C@@H](n2cnc3c(N)ncnc32)[C@H](O)[C@@H]1OP(=O)(O)O [18:1, oleoyl-CoA]

SMILES | LPAAT Activity from Coconut (coconut LPAAT [1]) | utilization by E. coli expressed coconut LPAAT (coconut LPAAT [2])
CCCCCCCCCCCCCC(=O)SCCNC(=O)CCNC(=O)[C@H](O)C(C)(C)COP(=O)(O)OP(=O)(O)OC[C@H]1O[C@@H](n2cnc3c(N)ncnc32)[C@H](O)[C@@H]1OP(=O)(O)O [14:0] | 61 pmol PA formed/30 min assay | most active
